pIC50: −log10 of the molar value.
How the values were obtained:
[1] = target: T1, PARG (Homo sapiens, UniProt Q86W56); assay: Enzymatic inhibitory activity against PARG, HTRF assay; format: biochemical; conditions: HTRF; PARylated PARP1 protein as substrate; 60 minutes at room temperature; read-out: IC50 against PARG enzyme
T1 construct: made in house
Procedure, shortened: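 Purified PARG pre-incubated with compounds (top 10 µM, 3- to 5-fold dilutions, duplicates) 15 min at room temperature, then PARylated PARP1 substrate added for 60 min in Tris pH 7.4 buffer with DTT, EDTA/EGTA, KCl. HTRF (His-Tb/SA-XL665) read-out; IC50 by four-parameter logistic fit, normalised to DMSO and control-inhibitor wells.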

[2] = tested on: KURAMOCHI cells; assay: Inhibition of proliferation of KURAMOCHI cells (CellTiter-Glo, intracellular ATP); format: cell-based; conditions: 168 h, incubated for 7 days, read-out: IC50 against KURAMOCHI cells
Procedure, shortened: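 KURAMOCHI cells seeded at 4000/well, incubated overnight, then treated with 9-point 1:4 compound series from 10 µM (0.5% DMSO) for 7 days at 37°C, 5% CO2. Viability read by CellTiter-Glo luminescence; inhibition normalised to medium-only (100%) and DMSO (0%) controls, IC50 from variable-slope four-parameter fit.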

T1 sequence (Q86W56 whole entry): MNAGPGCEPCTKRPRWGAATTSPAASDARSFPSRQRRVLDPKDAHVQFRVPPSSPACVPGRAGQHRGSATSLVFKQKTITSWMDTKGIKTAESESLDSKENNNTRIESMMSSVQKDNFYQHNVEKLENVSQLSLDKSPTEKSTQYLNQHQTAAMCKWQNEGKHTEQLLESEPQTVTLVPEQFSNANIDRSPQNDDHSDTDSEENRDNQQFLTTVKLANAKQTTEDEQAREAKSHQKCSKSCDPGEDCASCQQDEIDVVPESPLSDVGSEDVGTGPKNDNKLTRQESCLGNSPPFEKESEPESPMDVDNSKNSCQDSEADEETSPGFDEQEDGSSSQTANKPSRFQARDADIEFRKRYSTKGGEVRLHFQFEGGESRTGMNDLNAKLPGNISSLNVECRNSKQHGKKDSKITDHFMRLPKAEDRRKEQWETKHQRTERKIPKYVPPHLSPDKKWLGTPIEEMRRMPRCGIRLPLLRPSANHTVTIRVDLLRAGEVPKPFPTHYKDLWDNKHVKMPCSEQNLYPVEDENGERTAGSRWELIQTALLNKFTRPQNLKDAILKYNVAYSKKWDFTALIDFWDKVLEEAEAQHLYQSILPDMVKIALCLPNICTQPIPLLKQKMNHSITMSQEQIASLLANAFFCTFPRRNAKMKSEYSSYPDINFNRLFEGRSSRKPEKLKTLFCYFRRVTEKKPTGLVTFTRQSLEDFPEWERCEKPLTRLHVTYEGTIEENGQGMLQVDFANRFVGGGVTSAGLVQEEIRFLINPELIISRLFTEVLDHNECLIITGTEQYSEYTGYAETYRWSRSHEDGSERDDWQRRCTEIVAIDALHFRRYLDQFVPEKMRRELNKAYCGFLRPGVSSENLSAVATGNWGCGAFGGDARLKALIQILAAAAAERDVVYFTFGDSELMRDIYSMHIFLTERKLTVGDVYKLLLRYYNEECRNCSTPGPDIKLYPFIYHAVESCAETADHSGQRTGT

Compound | pIC50 [1] | pIC50 [2]
C[C@H]1CN(c2cc(S(=O)(=O)NC3(C)CC3)cc3c2nc(C2CCCCO2)n3-c2nnc(C(F)F)s2)C[C@H](C)N1 (stereo partly drawn) [Compound 077X] | 7.67 | 7.80
C[C@H]1CN(c2cc(S(=O)(=O)NC3(C)CC3)cc3c2nc(C2CC(F)(F)CO2)n3-c2nnc(C(F)F)s2)C[C@H](C)N1 (stereo partly drawn) [Compound 079J] | 8.74 | 8.40
C[C@H]1CN(c2cc(S(=O)(=O)NC3(C)CC3)cc3c2nc(C2CC4(CC4)CO2)n3-c2nnc(C(F)F)s2)C[C@H](C)N1 (stereo partly drawn) [Compound 079M] | 8.42 | 7.82
C[C@H]1CN(c2cc(S(=O)(=O)NC3(C)CC3)cn3c(-c4nnc(C(F)F)s4)c([C@H]4CCCO4)nc23)C[C@H](C)N1 [Compound 080B1] | 8.66 | 8.40
C[C@H]1CN(c2cc(S(=O)(=O)NC3(C)CC3)cn3c(-c4nnc(C(F)F)s4)c(C4CCCO4)nc23)C[C@H](C)N1 (stereo partly drawn) [Compound 080B] | 9.30 | 9.00
C[C@H]1CN(c2cc(S(=O)(=O)NC3(C)CC3)cn3c(-c4nnc(C(F)F)s4)cnc23)C[C@H](C)N1 [Compound 080J] | 8.62 | 8.30
C[C@H]1CN(c2cc(S(=O)(=O)NC3(C)CC3)cn3c(-c4nnc(C(F)F)s4)c(Cl)nc23)C[C@H](C)N1 [Compound 080K] | 8.77 | 8.40
C[C@H]1CN(c2cc(S(=O)(=O)NC3(C)CC3)cc3c(-c4nnc(C(F)F)s4)c([C@H]4CCCO4)nn23)C[C@H](C)N1 [Compound 083A1] | 7.84 | 7.60
C[C@H]1CN(c2cc(S(=O)(=O)NC3(C)CC3)cc3c(-c4nnc(C(F)F)s4)c([C@@H]4CCCO4)nn23)C[C@H](C)N1 [Compound 083A2] | 9.00 | 8.52
C[C@H]1CN(c2cc(S(=O)(=O)NC3(C)CC3)cc3c(-c4nnc(C(F)F)s4)c(C4CCCO4)nn23)C[C@H](C)N1 (stereo partly drawn) [Compound 083A] | 8.68 | 8.40
COC(C)(C)c1nc2n(-c3nnc(C(F)F)s3)c3cc(S(=O)(=O)NC4(C)CC4)cc(N4C[C@H](C)N[C@@H](C)C4)c3n2n1 [Compound 084H] | 9.15 | 8.52
C[C@H]1CN(c2cc(S(=O)(=O)NC3(C)CC3)cc3c2n2nc(C(=O)NC4CC4)nc2n3-c2nnc(C(F)F)s2)C[C@H](C)N1 [Compound 084J] | 9.15 | 7.80
C[C@H]1CN(c2cc(S(=O)(=O)NC3(C)CC3)cc3c2n2nc(C(=O)NC4(C)CC4)nc2n3-c2nnc(C(F)F)s2)C[C@H](C)N1 [Compound 084K] | 9.15 | 8.05
C[C@H]1CN(c2cc(S(=O)(=O)NC3(C)CC3)cc3c2n2nc(NC(=O)C4CC4)nc2n3-c2nnc(C(F)F)s2)C[C@H](C)N1 [Compound 084L] | 8.96 | 7.54
C[C@H]1CN(c2cc(S(=O)(=O)NC3(C)CC3)cc3c2n2nc(N4CCCC4=O)nc2n3-c2nnc(C(F)F)s2)C[C@H](C)N1 [Compound 084M] | 9.10 | 8.05
CC(C)C(=O)N1CCN(c2cc(S(=O)(=O)NC3(C)CC3)cc3c2[nH]c(=O)n3-c2nnc(C(F)F)s2)CC1 [Compound A002] | 7.79 | 7.07
CC(C)C(=O)N1CCN(c2cc(S(=O)(=O)NC3(C)CC3)cc3c2n(C)c(=O)n3-c2nnc(C(F)F)s2)CC1 [Compound A003] | 8.27 | 7.89
CN(C)C(=O)N1CCN(c2cc(S(=O)(=O)NC3(C)CC3)cc3c2[nH]c(=O)n3-c2nnc(C(F)F)s2)CC1 [Compound A004] | 7.97 | 7.10
Cn1c(=O)n(-c2nnc(C(F)F)s2)c2cc(S(=O)(=O)NC3(C)CC3)cc(N3CCNCC3)c21 [Compound A005] | 7.52 | 7.35
CN(C)C(=O)N1CCN(c2cc(S(=O)(=O)NC3(C)CC3)cc3c2n(C)c(=O)n3-c2nnc(C(F)F)s2)CC1 [Compound A006] | 8.43 | 8.10
CN(C)C(=O)N1CCN(c2cc(S(=O)(=O)NC3(C#N)CC3)cc3c2n(C)c(=O)n3-c2nnc(C(F)F)s2)CC1 [Compound A013] | 8.54 | 7.89
CC(C)C(=O)N1CCN(c2cc(S(=O)(=O)NC3(C#N)CC3)cc3c2n(C)c(=O)n3-c2nnc(C(F)F)s2)CC1 [Compound A014] | 7.91 | 7.43
CC(C)n1c(=O)n(-c2nnc(C(F)F)s2)c2cc(S(=O)(=O)NC3(C)CC3)cc(N3CCN(C(=O)N(C)C)CC3)c21 [Compound A018] | 7.47 | 8.15
CC(C)C(=O)N1CCN(c2cc(S(=O)(=O)NC3(C)CC3)cc3c2n(C(C)C)c(=O)n3-c2nnc(C(F)F)s2)CC1 [Compound A019] | 7.74 | 7.80

— patent publication EP4800013A1, “PARG INHIBITOR” (Shanghai Qilu Pharmaceutical Research and Development …, priority 2023, dated 2025)
